Results on 16 sequences are retold here after patent US10286063B2 (priority 2015, dated 2019).

Entries after “also recorded” stand apart in the source; their conditions may differ.

Experiment [1] has as its system PBMC. It is filed as cell-based, human.
Experiment [2] deals with Normal subject PBMC. It is filed as cell-based, human.

As for AANIIGILHLILWILDRL [Peptide H7N9-10], in experiment [1], the “% Inhibition by HLA-DR blocking Ab” value came to 68% and the “Effect of blocking HLA-DR on peptide-induced T cell response (in words)” value (“Effect of blocking HLA-DR” below) was “only partially inhibited”.

As to AVKLYKKLKREMTFHGA [Peptide H7N9-9], in experiment [1], the “% Inhibition by HLA-DR blocking Ab” value is given as 100%. Besides, the “suppression of T cell response to pool of H7N9 ICS peptides on co-incubation” value in experiment [2] was “did not suppress T cell responses to the pool of H7N9 epitopes”.

Consider DKLYERVKRQLRENAEED [Peptide H7N9-8], for which, in experiment [1], the “% Inhibition by HLA-DR blocking Ab” value worked out at 89% and the “Effect of blocking HLA-DR” value was “only partially inhibited”.

Turning to IVYWKQWLSLKNLTQ [Peptide H7N9-14A], the “% Inhibition by HLA-DR blocking Ab” value in experiment [1] stood at 100%. Further, the “suppression of T cell responses to HA peptides from circulating IAV strains” value (from here on “suppression of T cell responses”) in experiment [2] is recorded as “Reduced responses to the pool of IAV peptides (1-4)”.

Consider KGILGFVFTLTVPSERGLQ [Peptide H7N9-3], for which, in experiment [1], the “% Inhibition by HLA-DR blocking Ab” value worked out at 97% and the “Effect of blocking HLA-DR” value was “only partially inhibited”.

As to “PKYVKSNRLVLATG [IAV-4, reference compound]”, in experiment [1], the “% Inhibition by HLA-DR blocking Ab” value came to 96% and the “Effect of blocking HLA-DR” value is on record as “only partially inhibited”.

As to “PKYVKSTKLRLATG [IAV-1, reference compound]”, the “% Inhibition by HLA-DR blocking Ab” value in experiment [1] is listed as 100%.

Turning to “PRYVKQNTLKLATG [IAV-3, reference compound]”, in experiment [1], the “% Inhibition by HLA-DR blocking Ab” value was 78% and the “Effect of blocking HLA-DR” value is given as “only partially inhibited”.

For the sequence PRYVKQRSLLLATG [Peptide H7N9-13], in experiment [1], the “% Inhibition by HLA-DR blocking Ab” value was 100%. In addition, in experiment [2], the “suppression of T cell response to pool of H7N9 ICS peptides on co-incubation” value is given as “significantly suppressed T cell response to the pooled peptides; also recorded: significantly decreased” and the “suppression of T cell responses” value is reported as “significantly suppressed T cell response to IAV-3; also recorded: Reduced responses to the pool of IAV peptides (1-4); also recorded: able to suppress responses to other immunodominant HA peptides from circulating IAV strains”.

Regarding “PRYVKQSTLKLATG [IAV-2, reference compound]”, in experiment [1], the “% Inhibition by HLA-DR blocking Ab” value amounted to 73% and the “Effect of blocking HLA-DR” value is “only partially inhibited”.

With QITFMQALQLLLEVE [Peptide H7N9-12], the “% Inhibition by HLA-DR blocking Ab” value in experiment [1] stood at 100%.

For the sequence QPEWFRNVLSIAPIMFSNK [Peptide H7N9-4], the “% Inhibition by HLA-DR blocking Ab” value in experiment [1] turned out to be 100%.

As to RIDFHWLMLNPNDTVTFS [Peptide H7N9-1], in experiment [1], the “% Inhibition by HLA-DR blocking Ab” value is reported as 46% and the “Effect of blocking HLA-DR” value is recorded as “only partially inhibited”.

In the case of SRKLLLIVQALRDNLEPG [Peptide H7N9-11], in experiment [1], the “% Inhibition by HLA-DR blocking Ab” value is reported as “increased response” and the “Effect of blocking HLA-DR” value is on record as “the response increased in the presence of the blocking antibody; also recorded: response was absent except when HLA-DR was blocked”.

With WKQWLSLKNTLTQGSL [Peptide H7N9-14B], in experiment [2], the “suppression of T cell responses” value is given as “Reduced responses to the pool of IAV peptides (1-4)”.

YAEMKWLLSNTDNAAFPQ [Peptide H7N9-2]: in experiment [1], the “% Inhibition by HLA-DR blocking Ab” value was found to be 100%.
